Assay results: publication PMC7583350 (Journal of medicinal chemistry, 2018)
“Also recorded” adds a separate entry of the source.

Assays:
MIA PaCa-2 cells = assay: Co-treatment with gemcitabine, MIA PaCa-2 pancreatic cancer cells; type: cell-based, human; conditions: GEM-sensitive, 15 μM IAP inhibitor, 24 hrs co-treatment
BxPC3 cells = assay: Co-treatment with gemcitabine, BxPC3 pancreatic cancer cells; type: cell-based, human; conditions: 15 μM IAP inhibitor, 24 hrs co-treatment
PANC-1 cells = assay: Co-treatment with gemcitabine, PANC-1 pancreatic cancer cells; type: cell-based, human; conditions: GEM-resistant, 15 μM IAP inhibitor, 24 hrs co-treatment
BIR2 domain of XIAP = BIR2 domain of XIAP (Homo sapiens, UniProt P98170); assay: DELFIA assay, BIR2 domain of XIAP; type: binding; conditions: supplementary Table S1
Sequence of BIR2 domain of XIAP (P98170 152-236 limits assumed): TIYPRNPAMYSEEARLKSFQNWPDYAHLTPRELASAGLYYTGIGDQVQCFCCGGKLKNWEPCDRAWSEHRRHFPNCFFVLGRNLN

MOLT-4 cells [1] = assay: Cell viability of MOLT-4 cells; type: cell-based, human; conditions: MOLT-4, 48 hrs
H929 cells = assay: MTS assay, multiple myeloma cell line H929; type: cell-based, human; conditions: LCL161-sensitive MM cell line, 48 hr, 20 μM
L363 cells = assay: MTS assay, multiple myeloma cell line L363; type: cell-based, human; conditions: LCL161-sensitive MM cell line, 48 hr, 20 μM
MOLT-4 cells [2] = conditions: cited from earlier work

| Structure (SMILES) | Effect in combination with gemcitabine, MIA PaCa-2 (MIA PaCa-2 cells) | Effect in combination with gemcitabine, BxPC3 (BxPC3 cells) | Effect in combination with gemcitabine, PANC-1 (PANC-1 cells) | Affinity for the BIR2 domain of XIAP (BIR2 domain of XIAP) | Activity in cell viability assay (MOLT-4 cells [1]) | Growth inhibition H929 (H929 cells) | Growth inhibition L363 (L363 cells) | Sensitivity of MOLT-4 cell line (MOLT-4 cells [2]) |
| --- | --- | --- | --- | --- | --- | --- | --- | --- |
| CN[C@@H](C)C(=O)N[C@@H](Cc1cc(C)c(C(F)(F)F)cc1F)C(=O)N1CCC[C@H]1C(=O)N[C@@H]1CCc2c(F)cccc21 [Compound 31] | modest significant additive effect | significantly restore growth inhibition by gemcitabine; also recorded: significant synergism | significantly restore growth inhibition by gemcitabine; also recorded: significant synergism |  |  |  |  |  |
| CN[C@@H](C)C(=O)N[C@H](C(=O)N1CCC[C@H]1c1nc(C(=O)c2ccc(F)cc2)cs1)C1CCCCC1 [LCL161] |  | significantly restore growth inhibition by gemcitabine | significantly restore growth inhibition by gemcitabine | only modest affinity | not particularly active; also recorded: less potent than both compound 34 and compound 31 | particularly active | particularly active | insensitive |
